Test results published in patent publication US7759345B2, “Antitumoral derivatives of ET-743” (priority 2001, dated 2010).

What was measured:
[1] = system: A-549; test: Inhibition of cell growth by counting cells, A-549; type: cell-based, human; details: Homo sapiens, A549, 72 h; three days of incubation; read-out: IC50 (molar) A-549
Description: (§1) 1°.—Inhibition of Cell Growth by Counting Cells.
(§2) This form of the assay employs 24 well multidishes of 16 mm diameter (Bergeron, 1984; Schroeder, 1981). The tumor cell lines employed are: P-388 (ATCC CCL 46), suspension culture of a lymphoid neoplasm from a DBA/2 mouse; A-549 (ATCC CCL 185), monolayer culture of a human lung carcinoma; HT-29 (ATCC HTB-38), monolayer culture of a human colon carcinoma; MEL-28 (ATCC HTB-72), monolayer culture of a human melanoma and DU-145 (ATCC HTB-81), monolayer culture of a human prostate carcinoma.
(§3) Cells were maintained, in logarithmic phase of growth in Eagle's Minimum Essential Medium, with Earle's Balanced Salts, with non-essential amino acids, with 2.0 mM L-Glutamine, without sodium bicarbonate (EMEM/neaa), supplemented with 10% Fetal Calf Serum (FCS), 10^−2 M. sodium bicarbonate and 0.1 U/l penicillin G+0.1 g/l streptomycin sulfate. For the experiments, cells are harvested from subconfluent cultures using trypsin and resuspended in fresh medium before plating.
(§4) A-549, HT-29, MEL-28 and DU-145 cells were seeded into 16 mm diameter wells at 1×10^4 cells per well in 1 ml aliquots of EMEM 5% FCS containing different concentrations of the sample to be tested. A separate set of cultures without drug was seeded as control of growth, to ensure that cells remained in exponential phase of growth. All determinations are carrying out in duplicate. After three days of incubation at 37° C., 5% CO2 in a 98% humid atmosphere cells were stained with 0.1% crystal violet. An approximately IC50 was determined by comparing the growth in wells with drug to the growth in wells control.
(§5) For quantifying the activity, after the incubation time, cells are trypsinized and counted in a Coulter Counter ZM. All counts (net cells per well), represent the average of duplicate wells. % G, percent of growth relative to cultures without drug. The results of these assays are used to generate dose-response curves from which more precise IC50 values are determined (sample concentration which produces 50% cell growth inhibition).
(§6) Obtained results may predict the usefulness of a certain drug as a potential cancer treatment. For this technique, compounds which show IC50 values smaller than 1 μg/ml are selected to continue with further studies. IC50's data allow to predict that not only could a drug be cystostatic, but also it could have a potential in terms of tumor reduction.

[2] = system: HT-29; test: Inhibition of cell growth by counting cells, HT-29; type: cell-based, human; details: Homo sapiens, HT-29, 72 h; three days of incubation; read-out: IC50 (molar) HT-29
Description: as §1, §2, §3, §4, §5, §6

Compound | IC50 [1] | IC50 [2]
COc1cc2c(cc1OC(=O)CCc1ccccc1)CCN[C@]21CS[C@@H]2c3c(OC(C)=O)c(C)c4c(c3[C@H](COC1=O)N1C2[C@H]2c3c(cc(C)c(OC)c3O)C[C@@H]([C@@H]1C#N)N2C)OCO4 (some centres unmarked) [Compound 11] | 0.554 nM | 0.554 nM
COc1cc2c(cc1OC(=O)CCCl)CCN[C@]21CS[C@@H]2c3c(OC(C)=O)c(C)c4c(c3[C@H](COC1=O)N1C2[C@H]2c3c(cc(C)c(OC)c3O)C[C@@H]([C@@H]1C#N)N2C)OCO4 (some centres unmarked) [Compound 12] | 0.116 nM | 0.116 nM
COc1cc2c(cc1OC(=O)[C@H](C)NC(=O)OC(C)(C)C)CCN[C@]21CS[C@@H]2c3c(OC(C)=O)c(C)c4c(c3[C@H](COC1=O)N1C2[C@H]2c3c(cc(C)c(OC)c3O)C[C@@H]([C@@H]1C#N)N2C)OCO4 (some centres unmarked) [Compound 24] | 0.531 nM | 0.531 nM
COc1cc2c(cc1OC(=O)OC(C)(C)C)CCN[C@]21CS[C@@H]2c3c(OC(C)=O)c(C)c4c(c3[C@H](COC1=O)N1C2[C@H]2c3c(cc(C)c(OC)c3OC)C[C@@H]([C@@H]1C#N)N2C)OCO4 (some centres unmarked) [Compound 45] | 0.113 nM | 0.113 nM
COC1=C(C)C(=O)C2=C(C1=O)[C@@H]1C3[C@@H]4SC[C@]5(NCCc6cc(O)c(OC)cc65)C(=O)OC[C@@H](c5c6c(c(C)c(OC(C)=O)c54)OCO6)N3[C@@H](C#N)[C@H](C2)N1C (some centres unmarked) [Compound 52] | 1.27 nM | 1.27 nM
CCCC(=O)Oc1cc2c(cc1OC)[C@@]1(CS[C@@H]3c4c(OC(C)=O)c(C)c5c(c4[C@H](COC1=O)N1C3[C@H]3c4c(cc(C)c(OC)c4OC(=O)CCC)C[C@@H]([C@@H]1O)N3C)OCO5)NCC2 (some centres unmarked) [Compound 81] | 5.54 nM | 5.54 nM
CCCCCCCC(=O)Oc1cc2c(cc1OC)[C@@]1(CS[C@@H]3c4c(OC(C)=O)c(C)c5c(c4[C@H](COC1=O)N1C3[C@H]3c4c(cc(C)c(OC)c4OC(=O)CCCCCCC)C[C@@H]([C@@H]1O)N3C)OCO5)NCC2 (some centres unmarked) [Compound 82] | 98.6 nM | 98.6 nM
COc1cc2c(cc1OC(=O)/C=C/c1ccccc1)CCN[C@]21CS[C@@H]2c3c(OC(C)=O)c(C)c4c(c3[C@H](COC1=O)N1C2[C@H]2c3c(cc(C)c(OC)c3OC(=O)/C=C/c3ccccc3)C[C@@H]([C@@H]1O)N2C)OCO4 (some centres unmarked) [Compound 84] | 48.9 nM | 48.9 nM
COc1cc2c(cc1OC(=O)OCc1ccccc1)CCN[C@]21CS[C@@H]2c3c(OC(C)=O)c(C)c4c(c3[C@H](COC1=O)N1C2[C@H]2c3c(cc(C)c(OC)c3OC(=O)OCc3ccccc3)C[C@@H]([C@@H]1O)N2C)OCO4 (some centres unmarked) [Compound 85] | 9.71 nM | 9.71 nM
COc1cc2c(cc1OC(=O)OC(C)(C)C)CCN[C@]21CS[C@@H]2c3c(OC(=O)OC(C)(C)C)c(C)c4c(c3[C@H](COC1=O)N1C2[C@H]2c3c(cc(C)c(OC)c3O)C[C@@H]([C@@H]1C#N)N2C)OCO4 (some centres unmarked) [Compound 108] | 0.108 nM | 0.108 nM
